Data from patent US12617783B2, “Heterocyclic GLP-1R agonists” (BIOMEA FUSION, INC., priority 2024, dated 2026).

target: T1, human GLP-1R (Homo sapiens, UniProt P43220); assay: GLP-1R cAMP assay (Example B1a, HTRF, 30 min at room temperature); assay type: cell-based; conditions: Table 1d, stereoisomer pairs; read-out: EC50
T1 construct: host or cells: HEK293
Method in brief: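 Competitive HTRF read-out of cAMP after 30 min room-temperature stimulation, BETP absent, of human GLP-1R-HEK293 cells (1,000/well) in HEPES buffer with 500 μM IBMX and 0.1% BSA. Activation normalised to GLP-1(7-37) positive control. EC50 from 4-parameter non-linear regression.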

T1 sequence (P43220 24-463): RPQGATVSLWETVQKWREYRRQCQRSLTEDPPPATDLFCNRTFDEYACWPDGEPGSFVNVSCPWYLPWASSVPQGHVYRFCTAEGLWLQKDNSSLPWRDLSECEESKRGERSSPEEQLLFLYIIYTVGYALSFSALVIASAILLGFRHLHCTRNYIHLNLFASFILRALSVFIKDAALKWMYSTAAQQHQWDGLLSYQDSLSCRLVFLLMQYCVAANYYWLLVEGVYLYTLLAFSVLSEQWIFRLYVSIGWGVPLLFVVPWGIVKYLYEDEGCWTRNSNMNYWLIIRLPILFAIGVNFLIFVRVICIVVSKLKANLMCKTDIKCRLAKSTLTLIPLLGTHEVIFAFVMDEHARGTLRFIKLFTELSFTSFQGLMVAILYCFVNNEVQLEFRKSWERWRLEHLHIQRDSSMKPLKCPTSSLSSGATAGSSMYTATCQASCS

For `Cc1cc(-n2nc3c(c2-n2ccn(-c4ccc5c(cnn5C)c4F)c2=O)[C@H]2CC[C@@H](C3)N2C(=O)c2cc3cc([C@H]4CCOC5(CC5)C4)ccc3n2[C@@]2(c3noc(=O)[nH]3)C[C@@H]2C)cc(C)c1F` [Compound 411, 3-((1S,2S)-1-(2-((4R,7S)-3-(3-(4-fluoro-1-methyl-1H-indazol-5-yl)-2-oxo-2,3-dihydro-1H-imidazol-1-yl)-2-(4-fluoro-3,5-dimethylphenyl)-2,4,5,6,7,8-hexahydro-4,7-epiminocyclohepta [c]pyrazole-9-carbonyl)-5-((S)-4-oxaspiro[2.5]octan-7-yl)-1H-indol-1-yl)-2-methylcyclopropyl)-1,2,4-oxadiazol-5 (4H)-one], the EC50 was 652 nM.

same assay, conditions: cAMP accumulation in HEK293 expressing human GLP-1R, no BETP, 30 min room temperature (Method B1a, compounds ID 1-609), Table 1; read-out: EC50

Point of comparison: `Cc1cc(-n2nc3c(c2-n2ccn(-c4ccc5c(cnn5C)c4F)c2=O)[C@@H]2CCC[C@H](C3)N2S(=O)(=O)c2cc3cc(C4CCOCC4)ccc3n2[C@@]2(c3noc(=O)[nH]3)C[C@@H]2C)cc(C)c1F` [Compound 533, 3-[(1S,2S)-1-[2-[[(1S,8R)-4-(4-fluoro-3,5-dimethyl-phenyl)-3-[3-(4-fluoro-1-methyl-indazol-5-yl)-2-oxo-imidazol-1-yl]-4,5,12-triazatricyclo[6.3.1.02,6]dodeca-2,5-dien-12-yl]sulfonyl]-5-tetrahydropyran-4-yl-indol-1-yl]-2-methyl-cyclopropyl]-4H-1,2,4-oxadiazol-5-one], EC50 10400 nM. Against it:
- Cc1cc(-n2nc3c(c2-n2ccn(-c4ccc5c(cnn5C)c4F)c2=O)[C@@H]2CC[C@H](C3)N2C(=O)c2cc3cc([C@H]4CCOC(C)(C)C4)ccc3n2C2(c3noc(=O)[nH]3)CCC2)cc(C)c1F [Compound 134, 3-[1-[5-[(4S)-2,2-dimethyltetrahydropyran-4-yl]-2-[(1S,8R)-4-(4-fluoro-3,5-dimethyl-phenyl)-3-[3-(4-fluoro-1-methyl-indazol-5-yl)-2-oxo-imidazol-1-yl]-4,5,11-triazatricyclo[6.2.1.02,6]undeca-2,5-diene-11-carbonyl]indol-1-yl]cyclobutyl]-4H-1,2,4-oxadiazol-5-one] — not separable, > 10000 nM
- Cc1cc(-n2nc3c(c2-n2ccn(-c4ccc5c(cnn5C)c4F)c2=O)[C@@H]2CC[C@H](C3)N2C(=O)c2cc3cc([C@H]4CCOC5(CC5)C4)ccc3n2[C@]2(c3noc(=O)[nH]3)C[C@@H]2C)cc(C)c1F [Compound 528, 3-[(1R,2S)-1-[2-[(1S,8R)-4-(4-fluoro-3,5-dimethyl-phenyl)-3-[3-(4-fluoro-1-methyl-indazol-5-yl)-2-oxo-imidazol-1-yl]-4,5,11-triazatricyclo[6.2.1.02,6]undeca-2,5-diene-11-carbonyl]-5-[(7S)-4-oxaspiro[2.5]octan-7-yl]indol-1-yl]-2-methyl-cyclopropyl]-4H-1,2,4-oxadiazol-5-one] — 7.2-fold lower, 1440 nM
- Cc1cc(-n2nc3c(c2-n2ccn(-c4ccc5c(cnn5C)c4F)c2=O)[C@@H]2CC[C@H](C3)N2C(=O)c2cc3ccc(C4CCOCC4)cc3nc2C2(c3noc(=O)[nH]3)CC2C)cc(C)c1F (single isomer, unassigned) [Compound 237] — 85-fold lower, 123 nM
- Cc1cc(-n2nc3c(c2-n2ccn(-c4ccc5c(cnn5C)c4F)c2=O)[C@H]2CC[C@@H](C3)N2C(=O)c2cc3cc([C@@H]4CCOC5(CC5)C4)ccc3n2[C@]2(c3noc(=O)[nH]3)C[C@H]2C)cc(C)c1F [Compound 517, 3-[(1R,2R)-1-[2-[(1R,8S)-4-(4-fluoro-3,5-dimethyl-phenyl)-3-[3-(4-fluoro-1-methyl-indazol-5-yl)-2-oxo-imidazol-1-yl]-4,5,11-triazatricyclo[6.2.1.02,6]undeca-2,5-diene-11-carbonyl]-5-[(7R)-4-oxaspiro[2.5]octan-7-yl]indol-1-yl]-2-methyl-cyclopropyl]-4H-1,2,4-oxadiazol-5-one] — not separable, ≥ 10000 nM
- Cc1cc(-n2nc3c(c2-n2ccn(-c4ccc5c(cnn5C)c4F)c2=O)[C@@H]2CC[C@H](C3)N2C(=O)c2cc3c(=O)n(C4CCOC(C)(C)C4)ccc3n2[C@@]2(c3noc(=O)[nH]3)C[C@@H]2C)cc(C)c1F (stereo partly drawn) [Compound 231, 3-[(1S,2S)-1-[5-(2,2-dimethyltetrahydropyran-4-yl)-2-[(1S,8R)-4-(4-fluoro-3,5-dimethyl-phenyl)-3-[3-(4-fluoro-1-methyl-indazol-5-yl)-2-oxo-imidazol-1-yl]-4,5,11-triazatricyclo[6.2.1.02,6]undeca-2,5-diene-11-carbonyl]-4-oxo-pyrrolo[3,2-c]pyridin-1-yl]-2-methyl-cyclopropyl]-4H-1,2,4-oxadiazol-5-one] — not separable, > 10000 nM
- Cc1cc(-n2nc3c(c2-n2ccn(-c4ccc5c(cnn5C)c4F)c2=O)CN(Cc2cc4cc([C@H]5CCOC(C)(C)C5)ccc4n2[C@@]2(c4noc(=O)[nH]4)C[C@@H]2C)CCC3)cc(C)c1F [Compound 432, 3-((1S,2S)-1-(5-((S)-2,2-dimethyltetrahydro-2H-pyran-4-yl)-2-((3-(3-(4-fluoro-1-methyl-1H-indazol-5-yl)-2-oxo-2,3-dihydro-1H-imidazol-1-yl)-2-(4-fluoro-3,5-dimethylphenyl)-2,6,7,8-tetrahydropyrazolo[4,3-c]azepin-5 (4H)-yl)methyl)-1H-indol-1-yl)-2-methylcyclopropyl)-1,2,4-oxadiazol-5(4H)-one] — 37-fold lower, 284 nM
- Cc1cc(-n2nc3c(c2-n2ccn(-c4ccc5c(cnn5C)c4F)c2=O)[C@H]2CC[C@@H](C3)N2C(=O)c2cc3cc([C@H]4CCOC5(CC5)C4)ccc3n2[C@@]2(c3noc(=O)[nH]3)C[C@@H]2C)cc(C)c1F [Compound 411, 3-((1S,2S)-1-(2-((4R,7S)-3-(3-(4-fluoro-1-methyl-1H-indazol-5-yl)-2-oxo-2,3-dihydro-1H-imidazol-1-yl)-2-(4-fluoro-3,5-dimethylphenyl)-2,4,5,6,7,8-hexahydro-4,7-epiminocyclohepta [c]pyrazole-9-carbonyl)-5-((S)-4-oxaspiro[2.5]octan-7-yl)-1H-indol-1-yl)-2-methylcyclopropyl)-1,2,4-oxadiazol-5 (4H)-one] — 16-fold lower, 652 nM
- Cc1cc(-n2nc3c(c2-n2ccn(-c4ccc5c(cnn5C)c4F)c2=O)[C@@H]2CC[C@H](C3)N2C(=O)c2c(C)c3cc([C@H]4CCOC(C)(C)C4)ccc3n2[C@@]2(c3noc(=O)[nH]3)C[C@@H]2C)cc(C)c1F [Compound 532, 3-[(1S,2S)-1-[5-[(4S)-2,2-dimethyltetrahydropyran-4-yl]-2-[(1S,8R)-4-(4-fluoro-3,5-dimethyl-phenyl)-3-[3-(4-fluoro-1-methyl-indazol-5-yl)-2-oxo-imidazol-1-yl]-4,5,11-triazatricyclo[6.2.1.02,6]undeca-2,5-diene-11-carbonyl]-3-methyl-indol-1-yl]-2-methyl-cyclopropyl]-4H-1,2,4-oxadiazol-5-one] — 15-fold lower, 672 nM
- Cc1cc(-n2nc3c(c2-n2ccn(-c4ccc5c(cnn5C)c4F)c2=O)[C@@H]2CC[C@H](C3)N2C(=O)c2cc3cc(C4CCOC(C)(C)C4)cnc3n2[C@@]2(c3noc(=O)[nH]3)C[C@@H]2C)cc(C)c1F (stereo partly drawn) [Compound 311, 3-((1S,2S)-1-(5-(2,2-dimethyltetrahydro-2H-pyran-4-yl)-2-((4S,7R)-3-(3-(4-fluoro-1-methyl-1H-indazol-5-yl)-2-oxo-2,3-dihydro-1H-imidazol-1-yl)-2-(4-fluoro-3,5-dimethylphenyl)-2,4,5,6,7,8-hexahydro-4,7-epiminocyclohepta [c]pyrazole-9-carbonyl)-1H-pyrrolo[2,3-b]pyridin-1-yl)-2-methylcyclopropyl)-1,2,4-oxadiazol-5(4H)-one] — 180-fold lower, 57.3 nM
- Cc1cc(-n2nc3c(c2-n2ccn(-c4ccc5nn(C(F)F)cc5c4F)c2=O)[C@@H]2CC[C@H](C3)N2C(=O)c2cc3cc([C@H]4CCOC(C)(C)C4)ccc3n2[C@@]2(c3noc(=O)[nH]3)C[C@@H]2C)cc(C)c1F [Compound 309, 3-((1S,2S)-1-(2-((4S,7R)-3-(3-(2-(difluoromethyl)-4-fluoro-2H-indazol-5-yl)-2-oxo-2,3-dihydro-1H-imidazol-1-yl)-2-(4-fluoro-3,5-dimethylphenyl)-2,4,5,6,7,8-hexahydro-4,7-epiminocyclohepta [c]pyrazole-9-carbonyl)-5-((S)-2,2-dimethyltetrahydro-2H-pyran-4-yl)-1H-indol-1-yl)-2-methylcyclopropyl)-1,2,4-oxadiazol-5 (4H)-one] — 14-fold lower, 721 nM
- Cc1cc(-n2nc3c(c2-n2ccn(-c4ccc5c(cnn5C)c4F)c2=O)[C@@H]2CCC[C@H](C3)N2S(=O)(=O)c2cc3cc([C@H]4CCOC5(CC5)C4)ccc3n2[C@@]2(c3noc(=O)[nH]3)C[C@@H]2C)cc(C)c1F [Compound 608, 3-[(1S,2S)-1-[2-[[(1S,8R)-4-(4-fluoro-3,5-dimethyl-phenyl)-3-[3-(4-fluoro-1-methyl-indazol-5-yl)-2-oxo-imidazol-1-yl]-4,5,12-triazatricyclo[6.3.1.02,6]dodeca-2,5-dien-12-yl]sulfonyl]-5-[(7S)-4-oxaspiro[2.5]octan-7-yl]indol-1-yl]-2-methyl-cyclopropyl]-4H-1,2,4-oxadiazol-5-one] — not separable, ≥ 10000 nM
- Cc1cc(-n2nc3c(c2-n2ccn(-c4ccc5nnccc5c4)c2=O)[C@@H]2CC[C@H](C3)N2C(=O)c2cc3cc([C@H]4CCOC(C)(C)C4)ccc3n2C2(c3noc(=O)[nH]3)CC2)cc(C)c1F [Compound 119, 3-[1-[2-[(1S,8R)-3-(3-cinnolin-6-yl-2-oxo-imidazol-1-yl)-4-(4-fluoro-3,5-dimethyl-phenyl)-4,5,11-triazatricyclo[6.2.1.02,6]undeca-2,5-diene-11-carbonyl]-5-[(4S)-2,2-dimethyltetrahydropyran-4-yl]indol-1-yl]cyclopropyl]-4H-1,2,4-oxadiazol-5-one] — 4.6-fold lower, 2280 nM
- Cc1cc(-n2nc3c(c2-n2ccn(-c4ccc5c(cnn5C)c4F)c2=O)[C@@H]2CC[C@H](C3)N2C(=O)c2cc3c(OC4CCOC(C)(C)C4)nccc3n2[C@@]2(c3noc(=O)[nH]3)C[C@@H]2C)cc(C)c1F (stereo partly drawn) [Compound 232, 3-[(1S,2S)-1-[4-(2,2-dimethyltetrahydropyran-4-yl)oxy-2-[(1S,8R)-4-(4-fluoro-3,5-dimethyl-phenyl)-3-[3-(4-fluoro-1-methyl-indazol-5-yl)-2-oxo-imidazol-1-yl]-4,5,11-triazatricyclo[6.2.1.02,6]undeca-2,5-diene-11-carbonyl]pyrrolo[3,2-c]pyridin-1-yl]-2-methyl-cyclopropyl]-4H-1,2,4-oxadiazol-5-one] — not separable, > 10000 nM

same assay, conditions: text to Table 1d, bridge atoms configured out of the plane or toward the reader

`Cc1cc(-n2nc3c(c2-n2ccn(-c4ccc5c(cnn5C)c4F)c2=O)[C@H]2CC[C@@H](C3)N2C(=O)c2cc3cc([C@H]4CCOC5(CC5)C4)ccc3n2[C@@]2(c3noc(=O)[nH]3)C[C@@H]2C)cc(C)c1F` [Compound 411, 3-((1S,2S)-1-(2-((4R,7S)-3-(3-(4-fluoro-1-methyl-1H-indazol-5-yl)-2-oxo-2,3-dihydro-1H-imidazol-1-yl)-2-(4-fluoro-3,5-dimethylphenyl)-2,4,5,6,7,8-hexahydro-4,7-epiminocyclohepta [c]pyrazole-9-carbonyl)-5-((S)-4-oxaspiro[2.5]octan-7-yl)-1H-indol-1-yl)-2-methylcyclopropyl)-1,2,4-oxadiazol-5 (4H)-one] was tested, and the potency was “little or no potency”.
